Data set [1] in a line: Stability of DES-d4 (IS) in 6N HCl at 110° C., recovery by LC-MS/MS. The class given is physicochemical. To be noted: heated at 110° C. for 24, 48, and 72 hours.
Description: Step 1: Acid hydrolysis: DES-d4 IS (5 ng) was added to the analytical samples (0.5 ml) in a glass vial with equal volumes of concentrated HCl (37%). Air in the vial was displaced with nitrogen, and was heated at 110° C. for 24 hours. The hydrolyzed sample was filtered and evaporated to dryness.
Step 3: LC-MS/MS analysis: A TSQ Discovery electrospray tandem mass spectrometer (Thermo Fisher Scientific) was used for LC-MS/MS analysis. HPLC conditions used were a 2 mm×150 mm dC18 (3 μm) column (Waters, Mass.) and the mobile phase A (7 mM HFBA/5 mM NH4Ac in water) and B (7 mM HFBA/5 mM NH4Ac in 80% acetonitrile) were programmed linearly from 100% A to 82% A in 12 m. Quantitation was performed by selected reaction monitoring (SRM) of the transitions of both DES and IDS (m/z 526 to m/z 481+m/z 397) and the IS (m/z 530 to m/z 485), with collision energy set at 33 V for both transitions, collision gas pressure was 1.5 mTorr, tube lens at 132 V, with sheath gas pressure set at 45 and auxiliary gas pressure at 6 units and ion spray voltage at 3.8 kV. The scan time was set at 1.00 ms and both quadrupoles (Q1 and Q3) were at 0.7 Da FWHM.
The stability of DES-d4 and reliability during use as the IS for the isotope dilution LC-MS/MS analysis of DES and IDS were examined. […]
The conditions of data set [2]: 6N HCl (Ma, S. et al., 2011); cited from earlier work.
The test system of data set [3] is desmosine and isodesmosine (DI) in plasma (elastin degradation). The experiment in a line: Effect of alpha-1 antitrypsin augmentation therapy on DI levels in plasma of AATD patients. In kind it is in vivo, human. The note with it: for change in DI in plasma from baseline: 11 patients, intravenous replacement. The text has this: (§1) There were 4 sources of body fluid samples analyzed: 1) plasma samples from 47 patients receiving alpha-1 antitrypsin protein from human blood sources, commercially available, compared with 50 AATD patients not on AAT augmentation and 50 normal subjects; 2) 11 patients with homozygous severe AATD who provided plasma samples before the start of IV therapy and then 12 and 24 weeks later; 3) 10 patients with homozygous AATD receiving IV replacement provided BALF at 12 weeks (the dose administered was 60 mg/kg body weight each week in the above patient groups); and 4) patients received a recombinantly produced AAT which was administered as an aerosol for 8 weeks. (Spencer et al., 2005) (the administered dose was 250 mg of aerosolized transgenic AAT each day). Eight patients provided BALF, 12 patients provided plasma samples, and 5 patients provided urine samples at baseline and after 8 weeks of aerosol therapy.
(§2) The following 3 methods were used to define the alpha-1 genomes: 1) genotype by allelic discrimination using TaqMan (S&Z alleles), ABI 7500 Fast Real-time PCR System; 2) AAT Level by Immunogenic assay, Dade Behring Nephelometer BN II and 3) phenotyping by isoelectric focusing, Pharmacia Biotech Multiphore II. The method of analysis for desmosine and isodesmosine (DI) in plasma, BALF and urine is as described. (Ma et al., 2011) The content of DI in BALF was calculated as the concentration of DI per ml of BALF using urea as a marker of dilution. (Rennard et al., 1986).
(§3) High performance liquid chromatography and tandem mass spectrometry as described (Ma et al., 2011) were used.
(§4) The T-test was used to compare the effects of augmentation therapy on the large patient cohorts. The paired T-test was used to compare the changes before and after therapy in individuals. The linear regression was used to determine the relationships of age to levels of DI.

Data set [4] concerns desmosine and isodesmosine (DI) in epithelial lining fluid obtained by BALF (elastin degradation). The data set is described as follows: Effect of alpha-1 antitrypsin augmentation therapy on DI levels in BALF of AATD patients. In kind it is in vivo, human.
Description: as §1
The following 3 methods were used to define the alpha-1 genomes: 1) genotype by allelic discrimination using TaqMan (S&Z alleles), ABI 7500 Fast Real-time PCR System; 2) AAT Level by Immunogenic assay, Dade Behring Nephelometer BN II and 3) phenotyping by isoelectric focusing, Pharmacia Biotech Multiphore II. […] (Ma et al., 2011) The content of DI in BALF was calculated as the concentration of DI per ml of BALF using urea as a marker of dilution. […]

The subject of data set [5] is urinary desmosine and isodesmosine (DI). The data set is described as follows: Effect of aerosol alpha-1 antitrypsin augmentation therapy on urinary DI (free and total). The class given is in vivo, human. The note with it: before vs after aerosol augmentation therapy.
Description: as §1, §2, §3, §4

The test system of another data set is urinary desmosine. To be noted: cited from earlier work.
Data set [6] deals with leukotriene B-5, interleukin-8 and neutrophil elastase in sputum. The note with it: after weeks of supplementation therapy with I.V. AAT (Stockley et al., 2002); cited from earlier work.

For the compound `[2H]C([2H])(C[C@H](N)C(=O)O)C([2H])([2H])c1c(CC[C@H](N)C(=O)O)c[n+](CCCC[C@H](N)C(=O)O)cc1CC[C@H](N)C(=O)O` [DES-d4], the “stability of DES-d4 under acid hydrolysis (in words)” value in data set [1] is on record as “stable with nearly complete recovery”.
Consider `NC(CCCC[n+]1cc(CCC(N)C(=O)O)cc(CCC(N)C(=O)O)c1CCCC(N)C(=O)O)C(=O)O` (stereo not drawn) [IDS, isodesmosine], for which the “stability during acid hydrolysis (in words)” value in data set [2] was “stable”.
As to “aerosolized transgenic AAT: recombinantly produced AAT which was administered as an aerosol for 8 weeks”, in data set [3] (12 patients, before vs after 8 weeks aerosol augmentation therapy (250 mg each day), not statistically significant (p=0.1675)), the “mean decrease of DI in plasma” value is 6.5%. Besides, the “mean increase in DI in plasma” value in data set [3] (the 3 of 12 patients with increase, aerosol augmentation therapy, not statistically significant) was determined as 4.3%. Also, the “average decrease of DI in plasma” value in data set [3] (the 9 of 12 patients with reduction, aerosol augmentation therapy, p=0.0142) was determined as 12.1%. For the same compound, in data set [4] (8 patients, AAT by aerosol administration, 8 weeks, p=0.0078), the “mean reduction of DI levels in BALF” value is given as −58.5%. Further, in data set [5] (4 of the 5 subjects), the “reduction in the free component of DI excretion in urine” value is listed as 0.1-13.0%. Further, in data set [5] (5 subjects, p=0.0625), the “average reduction of percent of free DI over total DI excretion in urine” value was 21.6%. Also, the “increase in excretion of free DI in urine” value in data set [5] (one of the 5 subjects) came out at 75.3%.
Take `N[C@@H](CCCc1c(CC[C@H](N)C(=O)O)c[n+](CCCC[C@H](N)C(=O)O)cc1CC[C@H](N)C(=O)O)C(=O)[O-]` [DES, Desmosine]: the “stability during acid hydrolysis (in words)” value in data set [2] was “stable”.
As for “AAT: alpha-1 antitrypsin protein from human blood sources, commercially available, given intravenously as augmentation therapy”, the results for the “change in DI in plasma from baseline” value in data set [3] (12 weeks of therapy) and in data set [3] (24 weeks of therapy) were −13.9% and −20.3%, respectively. For the same compound, the “mean level of DI in plasma” value in data set [3] (AATD patients receiving augmentation therapy (IV, 60 mg/kg each week), n=50, no augmentation 0.36, normal 0.22) is 0.25 ng/mL. Further, in data set [3] (FIG. 7, augmentation group, n=50, no augmentation 0.36±0.01, normal 0.22±0.04), the “plasma levels of DI, mean±SD” value is on record as 0.25±0.01. In addition, in data set [4] (10 patients, before vs 12 weeks after IV augmentation therapy, p=0.0273), the “overall average change of DI in BALF” value is on record as −37%. Also, the “drop of mean post-treatment urinary desmosine from pre-treatment levels” value with urinary desmosine (two AATD patients, monthly infusions of 260 mg/kg, followed 18 months (Stone et al., 1995)) was “exceeded 35%”. Moreover, in data set [6], the “levels of leukotriene B-5, interleukin-8 and neutrophil elastase in sputum” value was “reduced levels”.
In the case of “Prolastin: AAT supplementation product (Bayer Company)”, the “urinary desmosine excretion during supplementation vs run in” value in the data set on urinary desmosine (12 AATD subjects, weekly 60 mg/kg for 4 weeks (Gottlieb et al., 2000)) is on record as “unchanged”.

The record behind these values is patent US20160103138A1, “METHODS FOR ANALYZING ELASTIC FIBER INJURY MARKERS AND DIAGNOSIS OF DISEASES ASSOCIATED WITH ELASTIC FIBER INJURY” (priority 2013, published 2016).
